Test results taken from article PMC6696238, “Novel Benzothiazole-Based Ureas as 17β-HSD10 Inhibitors, A Potential Alzheimer’s Disease Treatment” (Molecules, 2019).

Key:
[1] = biological target: T1, 17β-HSD10 (Homo sapiens, UniProt Q99714); assay: recombinant 17β-HSD10 enzyme activity assay (primary NADH screen and dose response); format: biochemical; parameters: made in house; conditions: relative remaining activity, 25 μM compound, six independent measurements ± SEM; read-out: 17β-HSD10 activity in the presence of compound at 25 μM (Primary Screen)
T1 sequence (Q99714 1-261): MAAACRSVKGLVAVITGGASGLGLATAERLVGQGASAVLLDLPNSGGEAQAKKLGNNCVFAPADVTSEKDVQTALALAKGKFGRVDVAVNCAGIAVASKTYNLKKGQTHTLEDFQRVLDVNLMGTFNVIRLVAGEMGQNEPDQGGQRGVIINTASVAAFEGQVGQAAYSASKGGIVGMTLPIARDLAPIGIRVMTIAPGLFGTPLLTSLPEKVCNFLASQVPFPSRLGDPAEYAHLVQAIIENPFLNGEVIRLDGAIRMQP
Source text: In order to reduce attrition rates and improve assay reproducibility we have developed a high throughput screening (HTS) pipeline (Figure 3 [19]). In brief, compounds are screened in the recombinant 17β-HSD10 enzyme activity assay (Table 5, Figure 4). Our best previously published compounds have set the threshold of 40% remaining 17β-HSD10 activity as a minimum standard and if compounds can better this threshold, they are further screened using our orthogonal counter assays, dose response assays and kinetic assessment (Table 5). Finally, if passing these criteria with favourable characteristics, the compounds progress into cellular evaluation through cytotoxicity testing and measuring 17β-HSD10 activity within cells (Table 6).
Full results for the primary nicotinamide adenine dinucleotide (NADH) assay screens are shown in Figure 4 including our four best previously published compounds for comparison (Figure 1).
Purification of 17β-HSD10 protein was performed as described in our previous work.
Compound screening, dose response and mechanism of inhibition experiments were performed as described in Hroch et al. 2016, with the exceptions being an alteration in assay buffer (10 mM Tris HCl (pH 7.4), 150 mM NaCl, 1 mM DTT, 0.005% Tween20, 0.01% BSA) and a change in temperature to 25 °C, to improve enzyme stability and assay reliability as compound solubility improved, as outlined in our previous work.

Q: Which results are given for CN(C(=O)Nc1nc2ccccc2s1)c1ccc(O)c(Cl)c1 [Compound 45, 3-(Benzo[d]thiazol-2-yl)-1-(3-chloro-4-hydroxyphenyl)-1-methylurea]?
A: melting point: 139 to 141 °C; remaining activity at 25 µM [1]: 77.3 ± 1.43%

Q: With COc1ccc2nc(NC(=O)Nc3ccc(O)c(C(C)(C)C)c3)sc2c1 [Compound 3, 1-(3-(Tert-butyl)-4-hydroxyphenyl)-3-(6-methoxybenzo[d]thiazol-2-yl)urea] as the compound, how does the melting point read?
A: 259 to 260 °C

Q: What about the remaining activity at 25 µM [1] of the same compound?
A: 41 ± 0.45%

Q: What does the source list for COc1ccc2nc(NC(=O)Nc3ccc(O)c(C#N)c3)sc2c1 [Compound 4, 1-(3-Cyano-4-hydroxyphenyl)-3-(6-methoxybenzo[d]thiazol-2-yl)urea]?
A: melting point: 277 to 279 °C; remaining activity at 25 µM [1]: 96.5 ± 2.03%

Q: Which results are given for COc1ccc2nc(NC(=O)Nc3ccc(N)c(Cl)c3)sc2c1 [Compound 10, 1-(4-Amino-3-chlorophenyl)-3-(6-methoxybenzo[d]thiazol-2-yl)urea]?
A: melting point: 310 to 311 °C (dec.); remaining activity at 25 µM [1]: 117 ± 3.94%

Q: Which melting point does the source give for CN(C(=O)Nc1ccc(O)c(Cl)c1)c1nc2ccccc2s1 [Compound 41, 1-(Benzo[d]thiazol-2-yl)-3-(3-chloro-4-hydroxyphenyl)-1-methylurea] here?
A: 171 to 172 °C

Q: What about the remaining activity at 25 µM [1] of the same compound?
A: 106 ± 20.9%

Q: With COc1ccc2nc(NC(c3ccc(O)cc3)P(=O)(OC)OC)sc2c1 (stereo not drawn) [Compound 35, Dimethyl ((4-hydroxyphenyl)((6-methoxybenzo[d]thiazol-2-yl)amino)methyl) phosphonate, reference compound] as the compound, how does the remaining activity at 25 µM [1] read?
A: 96.6 ± 1.35%

Q: What does the source list for COc1ccc2nc(NC(=O)NCc3ccc(O)c(Cl)c3)sc2c1 [Compound 28, 1-(3-Chloro-4-hydroxybenzyl)-3-(6-methoxybenzo[d]thiazol-2-yl)urea]?
A: melting point: 249 to 251 °C; remaining activity at 25 µM [1]: 101 ± 4.6%

Q: With Oc1ccc(Nc2nc3ccc(Cl)cc3s2)cc1Cl [Compound 23, 2-Chloro-4-((6-chlorobenzo[d]thiazol-2-yl)amino)phenol] as the compound, how does the melting point read?
A: 213 to 214.5 °C

Q: And the remaining activity at 25 µM [1]?
A: 120 ± 13.5%

Q: For COc1ccc2nc(NC(=O)NCc3ccc(O)c(O)c3)sc2c1 [Compound 29, 1-(3,4-Dihydroxybenzyl)-3-(6-methoxybenzo[d]thiazol-2-yl)urea], which melting point is on record?
A: 141.5 to 142 °C

Q: And the remaining activity at 25 µM [1]?
A: 63.5 ± 2.58%

Q: With COc1ccc2nc(NC(=O)Nc3ccc(O)c(N)c3)sc2c1 [Compound 7, 1-(3-Amino-4-hydroxyphenyl)-3-(6-methoxybenzo[d]thiazol-2-yl)urea] as the compound, how does the melting point read?
A: 180 to 181 °C

Q: What about the remaining activity at 25 µM [1] of the same compound?
A: 82.5 ± 2.39%

Q: For O=C(Nc1ccc(O)c(Cl)c1)Nc1nc2c(s1)CCCC2 [Compound 71, 1-(3-Chloro-4-hydroxyphenyl)-3-(4,5,6,7-tetrahydrobenzo[d]thiazol-2-yl)urea], which melting point is on record?
A: 258 to 260 °C

Q: And the remaining activity at 25 µM [1]?
A: 55.8 ± 1.54%

Q: What does the source list for COc1ccc2nc(NC(=O)N(C)c3ccc(O)c(Cl)c3)sc2c1 [Compound 46, 1-(3-Chloro-4-hydroxyphenyl)-3-(6-methoxybenzo[d]thiazol-2-yl)-1-methylurea]?
A: melting point: 220 °C (dec.); remaining activity at 25 µM [1]: 97.8 ± 1.32%

Q: With COc1ccc2nc(NC(c3ccc(F)cc3)P(=O)(OC)OC)sc2c1 (stereo not drawn) [Compound 34, Dimethyl ((4-fluorophenyl)((6-methoxybenzo[d]thiazol-2-yl)amino)methyl) phosphonate, reference compound] as the compound, how does the remaining activity at 25 µM [1] read?
A: 95.4 ± 1.16%

Q: Which melting point does the source give for COc1ccc2nc(NC(=O)Nc3ccc(CO)c(Cl)c3)sc2c1 [Compound 11, 1-(3-Chloro-4-(hydroxymethyl)phenyl)-3-(6-methoxybenzo[d]thiazol-2-yl)urea] here?
A: 229 to 230 °C

Q: And the remaining activity at 25 µM [1]?
A: 110 ± 3.8%

Q: For COc1ccc2nc(NC(=O)Nc3ccc(O)c(C)c3)sc2c1 [Compound 2, 1-(4-Hydroxy-3-methylphenyl)-3-(6-methoxybenzo[d]thiazol-2-yl)urea], which melting point is on record?
A: 262 to 263 °C

Q: What about the remaining activity at 25 µM [1] of the same compound?
A: 52.2 ± 3.67%

Q: Which remaining activity at 25 µM [1] does the source give for COc1ccc2nc(NC(=O)c3ccc(O)c(Cl)c3)sc2c1 [Compound 26] here?
A: 105 ± 4.99%

Q: For COc1ccc2nc(NC(=O)Nc3ccc(N)cc3)sc2c1 [Compound 9, 1-(4-Aminophenyl)-3-(6-methoxybenzo[d]thiazol-2-yl)urea], which melting point is on record?
A: 304 to 306 °C (dec.)

Q: What about the remaining activity at 25 µM [1] of the same compound?
A: 105 ± 3.17%

Q: Which melting point does the source give for COc1ccc(CCNC(=O)Nc2ccc(O)c(Cl)c2)cc1 [Compound 75, 1-(3-Chloro-4-hydroxyphenyl)-3-(4-methoxyphenethyl)urea] here?
A: 161.5 to 163.5 °C

Q: What about the remaining activity at 25 µM [1] of the same compound?
A: 73.3 ± 4.33%

Q: For COC(=O)c1cc(C(Nc2nc3ccc(OC)cc3s2)P(=O)(OC)OC)ccc1O (stereo not drawn) [Compound 36, Methyl 5-((dimethoxyphosphoryl)((6-methoxybenzo[d]thiazol-2-yl)amino)methyl)-2-hydroxybenzoate, reference compound], which remaining activity at 25 µM [1] is on record?
A: 95.9 ± 2.09%

Q: Which melting point does the source give for O=C(Nc1ccc(O)c(Cl)c1)Nc1nc(-c2ccc(Cl)cc2)cs1 [Compound 73, 1-(3-Chloro-4-hydroxyphenyl)-3-(4-(4-chlorophenyl)thiazol-2-yl)urea] here?
A: 206 to 208 °C

Q: What about the remaining activity at 25 µM [1] of the same compound?
A: 102 ± 3.65%

Q: For COc1ccc2nc(NC(=O)Nc3ccc(O)nc3)sc2c1 [Compound 8, 1-(6-Hydroxypyridin-3-yl)-3-(6-methoxybenzo[d]thiazol-2-yl)urea], which melting point is on record?
A: 272 to 273 °C

Q: And the remaining activity at 25 µM [1]?
A: 63.3 ± 3.42%

Q: Which melting point does the source give for O=C(Nc1ccc(O)c(Cl)c1)Nc1nccs1 [Compound 74, 1-(3-Chloro-4-hydroxyphenyl)-3-(thiazol-2-yl)urea] here?
A: 220 to 222 °C

Q: What about the remaining activity at 25 µM [1] of the same compound?
A: 74.5 ± 0.63%

Q: Which melting point does the source give for CN(C(=O)N(C)c1nc2ccccc2s1)c1ccc(O)c(Cl)c1 [Compound 49, 1-(Benzo[d]thiazol-2-yl)-3-(3-chloro-4-hydroxyphenyl)-1,3-dimethylurea] here?
A: 227 to 228.5 °C

Q: And the remaining activity at 25 µM [1]?
A: 105 ± 2.21%

Q: With COc1ccc2nc(NC(c3ccc(O)c(Cl)c3)P(=O)(OC)OC)sc2c1 (stereo not drawn) [Compound 37, Dimethyl ((3-chloro-4-hydroxyphenyl)((6-methoxybenzo[d]thiazol-2-yl)amino)methyl) phosphonate] as the compound, how does the melting point read?
A: 198 to 199 °C

Q: What about the remaining activity at 25 µM [1] of the same compound?
A: 97.83 ± 0.88%

Q: Which melting point does the source give for O=C(Nc1ccc(O)c(Cl)c1)Nc1ccc2ncsc2c1 [Compound 76, 1-(Benzo[d]thiazol-6-yl)-3-(3-chloro-4-hydroxyphenyl)urea] here?
A: 224 to 226 °C

Q: What about the remaining activity at 25 µM [1] of the same compound?
A: 43.8 ± 0.77%

Q: With O=C(Nc1ccc(O)c(Cl)c1)NC1Cc2ccccc2C1 [Compound 72, 1-(3-Chloro-4-hydroxyphenyl)-3-(2,3-dihydro-1H-inden-2-yl)urea] as the compound, how does the melting point read?
A: 203 to 205 °C

Q: What about the remaining activity at 25 µM [1] of the same compound?
A: 79.2 ± 2.56%
